Reference: ChEMBL document CHEMBL2074460, “P-glycoprotein-mediated transport of digitoxin, alpha-methyldigoxin and beta-acetyldigoxin” (Naunyn Schmiedebergs Arch Pharmacol, 2001)

Molecular target: ATP-dependent translocase ABCB1 (Homo sapiens, UniProt P08183)
Experiment: TP_TRANSPORTER: transepithelial transport (basal to apical) in MDR1-expressing LLC-PK1 cells
Type: functional, cell-based
Details: pig

Sequence of ATP-dependent translocase ABCB1 (P08183 whole entry): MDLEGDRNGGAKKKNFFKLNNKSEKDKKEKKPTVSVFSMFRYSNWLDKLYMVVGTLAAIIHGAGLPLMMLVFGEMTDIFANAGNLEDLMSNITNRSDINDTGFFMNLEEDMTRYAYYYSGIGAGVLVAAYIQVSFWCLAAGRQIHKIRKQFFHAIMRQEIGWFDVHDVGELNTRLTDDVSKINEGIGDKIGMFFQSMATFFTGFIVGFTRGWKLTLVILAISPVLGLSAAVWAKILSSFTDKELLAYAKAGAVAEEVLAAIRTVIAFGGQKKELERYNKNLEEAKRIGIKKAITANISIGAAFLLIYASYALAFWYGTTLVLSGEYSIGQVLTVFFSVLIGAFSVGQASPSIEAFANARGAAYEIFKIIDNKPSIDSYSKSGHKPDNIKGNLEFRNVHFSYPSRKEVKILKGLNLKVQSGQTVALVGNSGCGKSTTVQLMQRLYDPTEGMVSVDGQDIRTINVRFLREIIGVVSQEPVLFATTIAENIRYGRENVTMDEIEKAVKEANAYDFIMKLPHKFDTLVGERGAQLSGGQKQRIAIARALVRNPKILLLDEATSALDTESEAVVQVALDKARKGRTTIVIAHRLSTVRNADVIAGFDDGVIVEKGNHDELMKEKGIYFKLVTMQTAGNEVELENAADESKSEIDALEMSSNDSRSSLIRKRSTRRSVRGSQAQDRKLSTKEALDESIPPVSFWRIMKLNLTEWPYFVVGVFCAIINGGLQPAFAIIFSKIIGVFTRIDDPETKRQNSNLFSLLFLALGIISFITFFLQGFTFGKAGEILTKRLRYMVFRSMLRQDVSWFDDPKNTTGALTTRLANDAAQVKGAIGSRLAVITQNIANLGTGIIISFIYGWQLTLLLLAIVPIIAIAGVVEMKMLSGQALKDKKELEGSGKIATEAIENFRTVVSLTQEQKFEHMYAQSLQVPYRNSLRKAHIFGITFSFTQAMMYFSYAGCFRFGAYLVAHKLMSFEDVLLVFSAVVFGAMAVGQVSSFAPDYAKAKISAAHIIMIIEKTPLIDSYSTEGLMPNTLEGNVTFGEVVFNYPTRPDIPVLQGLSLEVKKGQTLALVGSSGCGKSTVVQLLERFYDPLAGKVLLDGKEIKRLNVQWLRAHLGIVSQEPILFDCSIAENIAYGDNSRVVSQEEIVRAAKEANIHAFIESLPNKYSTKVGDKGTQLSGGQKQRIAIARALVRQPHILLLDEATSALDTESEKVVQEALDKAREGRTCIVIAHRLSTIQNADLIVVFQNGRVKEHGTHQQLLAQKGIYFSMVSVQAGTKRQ

Row | SMILES | Activity
1 | CC(=O)O[C@H]1C[C@H](O[C@H]2[C@@H](O)C[C@H](O[C@H]3[C@@H](O)C[C@H](O[C@H]4CC[C@@]5(C)[C@H](CC[C@@H]6[C@@H]5C[C@@H](O)[C@]5(C)[C@@H](C7=CC(=O)OC7)CC[C@]65O)C4)O[C@@H]3C)O[C@@H]2C)O[C@H](C)[C@H]1O [ACETYLDIGOXIN] | substrate [+]
2 | O=C(O)CCC(=O)C(=O)O [ALPHA-KETOGLUTARIC ACID] | substrate [+]
3 | C[C@H]1O[C@@H](O[C@H]2[C@@H](O)C[C@H](O[C@H]3[C@@H](O)C[C@H](O[C@H]4CC[C@@]5(C)[C@H](CC[C@@H]6[C@@H]5CC[C@]5(C)[C@@H](C7=CC(=O)OC7)CC[C@]65O)C4)O[C@@H]3C)O[C@@H]2C)C[C@H](O)[C@@H]1O [DIGITOXIN] | substrate [+]
